Data set [1] concerns A549, H1975, and PC9 cell lines. Kind of data set: MTT antiproliferative assay, average of the three NSCLC cell lines. The conditions noted are these: Homo sapiens, read-out: IC50 (µM) Average.
The test system of another data set is WI-38 normal cells. Kind of data set: MTT cytotoxicity on normal fibroblast WI-38 cells.
Data set [2] concerns A549 cells. Kind of data set: Wound healing assay in A549 cells. Type of data set: cell-based, human. The conditions noted are these: 0.5, 1 or 2 µM, 72 h. The procedure: Various articles have highlighted the role of EGFR in the migration of tumor cells. Accordingly, the migratory effects of 5a in A549 cells were assessed using a wound healing assay.
Wound healing assay of 5a was performed using CytoSelect™ 24-well Wound Healing Assay kit (Cat. # CBA-120, Cell Biolabs Inc., Cambridge, UK) per manufacturer’s instructions. In brief, the 24-well plate wound healing inserts were allowed to warm up at room temperature for 10 min., then to each well, 500 µL of A549 cells suspension ([…]) in media containing 10% fetal bovine serum (FBS) was added. Cells were kept in a cell culture incubator until a monolayer formed. Carefully, the insert was removed from the well. The media were slowly aspirated and discarded from the wells. The wells were washed with media to remove dead cells and debris. Finally, the media were added to wells to keep cells hydrated, then wells were visualized under a light microscope. Media containing the indicated concentrations of compound 5a (0.5, 1, or 2 µM) were then added into the wells for 72 h. the wound closure was monitored with a light microscope. The percent closure of the cells into the wound field was measured.

The test system of data set [3] is A549 cells. Kind of data set: Cell cycle analysis by flow cytometry in A549 cells. The data set is classed as cell-based, human. To be noted: 5a at its IC50 value. Here is the method: (§1) The active hydantoin derivative 5a was further investigated for its effect on cell cycle progression and the induction of apoptosis in A549 cells. Exposure of A549 cells to 5a at its IC50 value led to an interference with the normal cell cycle distribution of the cell (Figure 5). […] Meanwhile, 5a was evaluated for its ability to induce apoptosis in A549 cells by staining with propidium iodide and Annexin V-FITC.
(§2) Cell cycle analysis and Annexin V-FITC apoptosis assay were performed as described earlier.
Figure 5 Compound 5a arrested the cell cycle at the sub G1 and S phases in A549 cells. Representative cell cycle distribution data are shown by flow cytometric analysis upon incubation with 5a or DMSO as a negative control for 24 h.

The target of the next data set is T1, EGFR phosphorylation (Homo sapiens, UniProt P00533).
T1 construct: A549 (harbor EGFR^WT); endogenous in cells; host or cells: A549
Kind of data set: Western blot of EGFR phosphorylation expression in A549 cells. The data set is classed as cell-based. Here is the method:
In addition, the obtained data were attuned to β-actin expression to exclude the deviations further.
The western blot experiment was performed according to the same procedure described earlier.

Another data set relates to ERK. Kind of data set: ERK enzyme assay (ELISA) in A549 cells. The data set is classed as cell-based, human. The conditions noted are these: read-out: Enzymatic Inhibition, IC50, (nM) ERK.
Another data set addresses EGFR^WT (Homo sapiens, UniProt P00533). Kind of data set: EGFR kinase assay (wild type).
A further data set concerns Akt. Kind of data set: Akt enzyme assay (Phospho-Ser473 ELISA) in A549 cells. The conditions noted are these: read-out: Enzymatic Inhibition, IC50, (nM) Akt. The data set is classed as cell-based, human.
In the next data set the target is EGFR^T790M (Homo sapiens, UniProt P00533, T790M). Kind of data set: EGFR kinase assay (T790M).
The subject of another data set is H1975 cells. Kind of data set: MTT antiproliferative assay, H1975. To be noted: Homo sapiens, NCI-H1975, read-out: IC50 (µM) H1975.
Another data set has as its target EGFR^L858R (Homo sapiens, UniProt P00533, L858R). Kind of data set: EGFR kinase assay (L858R).
For data set [4], the system named is A549 cells. Kind of data set: MTT antiproliferative assay, A549. To be noted: Homo sapiens, A549, read-out: IC50 (µM) A549.
The subject of another data set is PC9 cells. Kind of data set: MTT antiproliferative assay, PC9. To be noted: Homo sapiens, PC-9, read-out: IC50 (µM) PC9.
Data set [5] deals with A549 cells. Kind of data set: Annexin V-FITC/propidium iodide apoptosis assay in A549 cells. Type of data set: cell-based, human. The conditions noted are these: IC50 concentration. Here is the method: as §1, §2
Figure 6 Apoptotic effect of compound 5a on A549 cells. Representative cytograms of apoptotic A549 cells stimulated with 5a or DMSO as a negative control for 24 h. TEXT PRINTED IN THE PICTURE: Control: Necrosis 0.94%; Late apoptosis 0.26%; Early apoptosis 0.41% | 5a: Necrosis 11.59%; Late apoptosis 19.89%; Early apoptosis 3.77%

The mark [6] stands for this setting: A549 cells treated by 5a, Western blot.

Description for Akt: Akt expression level was assayed using the Phospho Sandwich Akt (Phospho-Ser473) ELISA Kit (Cat. # MBS9511022, MyBioSource, San Diego, CA, USA) containing the components necessary for the semi-quantitative determination of Akt concentrations within experimental cell lysate samples. The assay was performed according to company protocols: the lysates were diluted with assay diluent and 100 μL/well was dispensed, wrapped with parafilm, and incubated for 2 h. They were shaken with RT or overnight at 4 °C. The plate was washed 3 times with 1× Wash Buffer 300 μL/well with a vacuum-based plate washer. Then, the plate was stricken on absorbent paper to remove as much residual liquid as possible. The Detection Antibody was diluted to 1× and 100 μL/well was dispensed, wrapped with parafilm, and incubated on a shaker for 2 hrs at RT, and the washing step was repeated. Streptavidin-HRP was diluted to 1× and 100 μL/well was dispensed, wrapped with parafilm, and incubated on a shaker for 30 min at RT. Ready-to-use substrate was brought to RT and 100 μL/well was dispensed and the reaction was allowed to incubate on an orbital shaker for 20–30 min. The reaction was stopped with stop solution 100 μL/well. The wells turned from blue to yellow and were read at 450 nm.
Description for ERK: ERK ELISA Kit (Cat. # E4317-100, BioVision, Inc., Waltham, MA, USA) was used for the in vitro quantitative determination of Human ERK. Firstly, the plate was washed 2 times with Wash Solution before the standard, sample, and control wells were added. A total of 100 μL of each standard or sample was added into appropriate wells. […] The cover was removed and the plate content was discarded without washing or letting the wells completely dry. A total of 0.1 mL of Biotin-detection antibody work solution was added into the above wells. […] The solution was discarded and washed 3 times with Wash Solution. It was washed by filling each well with Wash Buffer (350 μL) using a multi-channel pipette or auto-washer. It was soaked for 1–2 min, and then all residual wash-liquid was removed from the wells by aspiration. After the last wash, any remaining wash buffer was removed by aspirating or decanting. The plate was clapped on absorbent filter papers or other absorbent materials. […] The solution was discarded and washed 5 times with wash solution as mentioned before. […] A total of 50 μL of Stop Solution was added to each well. The result was read at 450 nm within 20 min.
Description for WI-38 normal cells: The new prepared candidates 5a–5n were evaluated for their antitumor activities against four selected cell lines, the adenocarcinomic human alveolar basal epithelial cells NCI-A549, NCI-H1975, human pulmonary adenocarcinoma PC9, and the fibroblast-like fetal lung cells WI-38 (purchased from American Type Culture Collection (ATCC), United States of America), using an MTT assay [26], as described earlier [27].

`COc1ccc(NC(=O)CN2C(=O)NC(C)(c3ccccc3)C2=O)cc1OC` (centres unmarked) [5a, N -(3,4-dimethoxyphenyl)-2-(4-methyl-2,5-dioxo-4-phenylimidazolidin-1-yl)acetamide]: the IC50 in data set [1] came out at 4.79 µM; in the data set on WI-38 normal cells (Homo sapiens, WI-38, read-out: WI-38, IC50 (µM)), 49.3 ± 2.75 µM; in the data set with ERK it was 25.8 ± 41 nM; against EGFR^WT, 30 ± 5 nM; in the data set on Akt it was 33.8 ± 0.55 nM; on EGFR^T790M it was 90 ± 2 nM. Moreover, the half-maximal inhibitory concentration (IC50) with H1975 cells was 1.94 ± 0.25 µM; at EGFR^L858R, 50 ± 1 nM; in the data set with A549 cells [4] it was 2.26 ± 0.12 µM; with PC9 cells it was 10.2 ± 0.53 µM. For the same compound, the “fold superior to the reference erlotinib on WI-38” value in the data set on WI-38 normal cells (ratio of WI-38 IC50 versus erlotinib) turned out to be 2.6 fold. Moreover, the “wound closure and migration of A549 cells” value in the data set with A549 cells [2] is “reduced the wound closure and the migration of A549 cells substantially in a dose-dependent manner”. Besides, in the data set with A549 cells [3], the “boost of cells at pre-G1 compared to the control” value is listed as 22 folds. In addition, in the data set with A549 cells [3] (24 h), the “cells at S phase” value is 40.40%. For the same compound, the “cells at sub G1 phase” value in the data set on A549 cells [3] (24 h) came out at 35.25%. In addition, at EGFR phosphorylation (setting [6]), the “OD (EGFR)” value stood at 0.79. The “OD (pEGFR)” value on EGFR phosphorylation (setting [6]) stood at 0.33. The “fold decrease in expression level of EGFR phosphorylation compared to control” value on EGFR phosphorylation (A549 cells, 0.03 µM of 5a, normalised to β-actin) was found to be 2.5 fold. Besides, the “elevation of early apoptotic cells compared to the negative control” value in the data set with A549 cells [5] was 77 folds. The “elevation of late apoptotic cells compared to the negative control” value with A549 cells [5] is given as 9 folds. This compound yielded an Early apoptosis in the data set on A549 cells [5] (24 h) of 3.77%. For the same compound, the Late apoptosis in the data set on A549 cells [5] (24 h) was 19.89%. Besides, the Necrosis with A549 cells [5] (24 h) turned out to be 11.59%.

Source of the values: PMC9317481, “Design and Synthesis of New Hydantoin Acetanilide Derivatives as Anti-NSCLC Targeting EGFR^L858R/T790M Mutations” (Pharmaceuticals, 2022).
